Measurements from US9988607B2, “Artificial three-dimensional microenvironment niche culture and methods of using the same” (priority 2008, dated 2018).

Key:
Type in all cases: cell-based, human
[1] = tested on: OCT3/4, SOX2, LIN28, KLF4 promoters; experiment: Promoter-GFP reporter screen of compound library in HDF cells in 3D hyaluronan hydrogel niche culture; conditions: for Activation of expression of one or more of the target promoters: GFP fluorescence after 4 days of incubation, normalized to ViPS control; for Optimized Concentration: empirically determined through repeat experiments with a broad range of concentrations
Method: (§1) Replicate microspots were prepared in Complete Media and transfected with reporter constructs for genes critically expressed in pluripotent cells. The reporter constructs contained promoter regions of one of the genes listed in Table 6 operably linked to a green fluorescent protein (GFP) coding region in pGlow TOPO TA (Invitrogen).
(§2) Briefly, a transient transfection mixture containing Lipofectamine 2000 (0.4 μl/24 μl total hyaluronan volume, Invitrogen) and promoter-Green Fluorescent Protein (GFP) construct in (500 ng) was added to each microspot.
(§3) Library screening was performed by including dilution series of each compound in mTeSR-1 medium, to HDF cells embedded in 3D hyaluronan hydrogel microenvironment niche culture optimized as described above in EXAMPLES 1 and 2.
(§4) After 4 days of incubation with target compounds, relative fluorescence from expression of the GFP constructs was recorded using a fluorescent microplate reader. Values were normalized to reflect percent fluorescence of control (ViPS) cells.
Compounds that activated expression of one or more of the target promoters were scored as positive.

HDF cells = experiment: ViPS pluripotency factor replacement: chemical induction of iPS colonies in 3D microenvironment niche culture; conditions: HDF in 3D ES cell microenvironment niche culture; preliminary
From the text: To test the possibility of chemical induction of pluripotency in human dermal fibroblasts, well known compounds affecting these pluripotency factors were substituted for expression of the pluripotency factors from viral expression vectors. Candidate compounds included those that affect the Wnt pathway because activation of this pathway had been reported to be involved in OCT 3/4, Sox-2, and Nanog activation. The initial compounds tested included: BIO (6-bromoindirubin-3′-oxime), a specific pharmacological inhibitor of glycogen synthase kinase known to stimulate Wnt signaling and maintain pluripotency in human and mouse embryonic stem cells (Sato et al., Nat. Med. (2004) 10:55-63); prostaglandin E2 (PGE2), reported to be an activator of Wnt pathway via “cross talk” at the beta-catenin signal level; valproic acid, a histone deacetylase (HDAC) inhibitor, and Wnt pathway activator (Bug et al. (2005) Cancer Res 65:2537-41). […] These compounds were chosen for further experimentation since their mechanism of activity was previously determined and they appeared to activate the pluripotency signal transduction pathway (e.g. Wnt pathway).
Compounds were added to HDF cells grown in 3D ES cell microenvironment niche cultures (prepared as described above in EXAMPLES 1 and 2), to evaluate whether they would rescue iPS phenotype in the absence of individual pluripotency factors introduced retrovirally. ViPS cells, induced with lentiviral transduction of pluripotency factor genes (OCT4, Sox2, Nanog, Klf4) as described by Takahashi et al. ((2007), Cell 131:1-12). Data is presented as the number of colonies with iPS morphology observed per 100,000 host cells.
Stem cell self renewal optimized 3-D hydrogel ES microenvironment niche conditions (as described in EXAMPLEs 1 and 2) were found necessary for chemical induction of iPS state. Pluripotency was not observed when standard tissue culture plates or those coated with Matrigel or methylcellulose were substituted for the 3D microenvironment conditions.

SOX2 promoter = experiment: Promoter-GFP reporter screen in HDF cells, SOX2 promoter; conditions: FIG. 7
Method: as §1, §2, §3, §4

OCT4 promoter = experiment: Promoter-GFP reporter screen in HDF cells, OCT4 promoter; conditions: FIG. 7
Method: as §1, §2, §3, §4

SMILES | Activation of expression of one or more of the target promoters [1] | Optimized Concentration [1] | Replacement of virally transduced pluripotency factors (colonies with iPS morphology per 100,000 host cells) (HDF cells) | Expression of SOX2 promoter (SOX2 promoter) | Expression of OCT4 promoter (OCT4 promoter)
Br.Cc1ccc(C(=O)Cn2c3c(sc2=N)CCCC3)cc1 [D12-2234, 1-(4-Methylphenyl)-2-(4,5,6,7-tetrahydro-2-imino-3(2H)-benzothiazolyl)ethanone HBr] | positive | 30 µM |  |  | 
CCCCC[C@H](O)/C=C/[C@H]1[C@H](O)CC(=O)[C@@H]1C/C=C\CCCC(=O)O [D2-6542, Prostaglandin E2] | positive | 10 µM | could be used to replace virally transduced pluripotency factors |  | 
CCCC(CCC)C(=O)O [D10-8976, Valproic Acid] | positive | 2000 µM | could be used to replace virally transduced pluripotency factors | stimulate expression | stimulate expression
CCCCC[C@H](O)/C=C/[C@H]1C(=O)C=C[C@@H]1C/C=C\CCCC(=O)O [D9-9811, Prostaglandin J2] | positive | 10 µM | could be used to replace virally transduced pluripotency factors |  | 
O=C1Nc2cc(Br)ccc2/C1=C1/Nc2ccccc2/C1=N\O [D9-6452, 6-bromoindirubin-3′-oxime] | positive | 4 µM | could be used to replace virally transduced pluripotency factors |  | 
Cc1cccc(-c2n[nH]cc2-c2ccc3ncccc3n2)n1 [D21-8765, 2-(3-(6-Methylpyridin-2-yl)-1H-pyrazol-4-yl)-1,5-naphthyridine] | positive | 25000 µM |  |  | 
O=C1Nc2ccc([N+](=O)[O-])cc2C1=C1Nc2ccccc2C1=NO [D3-8976, Indirubin-5-nitro-3′-oxime] | positive | 4 µM |  |  | 
